{
  "source": "patent US9006450B2",
  "about": "(Boehringer Ingelheim International GmbH, priority 2010, dated 2015)",
  "data": [
    {"biological_target": "T1, human ACC2 (Homo sapiens, UniProt O00763)", "T1 construct": "made in house; host or cells: insect cells (baculoviral expression system)", "T1 sequence (O00763 129-2458 limits assumed)": "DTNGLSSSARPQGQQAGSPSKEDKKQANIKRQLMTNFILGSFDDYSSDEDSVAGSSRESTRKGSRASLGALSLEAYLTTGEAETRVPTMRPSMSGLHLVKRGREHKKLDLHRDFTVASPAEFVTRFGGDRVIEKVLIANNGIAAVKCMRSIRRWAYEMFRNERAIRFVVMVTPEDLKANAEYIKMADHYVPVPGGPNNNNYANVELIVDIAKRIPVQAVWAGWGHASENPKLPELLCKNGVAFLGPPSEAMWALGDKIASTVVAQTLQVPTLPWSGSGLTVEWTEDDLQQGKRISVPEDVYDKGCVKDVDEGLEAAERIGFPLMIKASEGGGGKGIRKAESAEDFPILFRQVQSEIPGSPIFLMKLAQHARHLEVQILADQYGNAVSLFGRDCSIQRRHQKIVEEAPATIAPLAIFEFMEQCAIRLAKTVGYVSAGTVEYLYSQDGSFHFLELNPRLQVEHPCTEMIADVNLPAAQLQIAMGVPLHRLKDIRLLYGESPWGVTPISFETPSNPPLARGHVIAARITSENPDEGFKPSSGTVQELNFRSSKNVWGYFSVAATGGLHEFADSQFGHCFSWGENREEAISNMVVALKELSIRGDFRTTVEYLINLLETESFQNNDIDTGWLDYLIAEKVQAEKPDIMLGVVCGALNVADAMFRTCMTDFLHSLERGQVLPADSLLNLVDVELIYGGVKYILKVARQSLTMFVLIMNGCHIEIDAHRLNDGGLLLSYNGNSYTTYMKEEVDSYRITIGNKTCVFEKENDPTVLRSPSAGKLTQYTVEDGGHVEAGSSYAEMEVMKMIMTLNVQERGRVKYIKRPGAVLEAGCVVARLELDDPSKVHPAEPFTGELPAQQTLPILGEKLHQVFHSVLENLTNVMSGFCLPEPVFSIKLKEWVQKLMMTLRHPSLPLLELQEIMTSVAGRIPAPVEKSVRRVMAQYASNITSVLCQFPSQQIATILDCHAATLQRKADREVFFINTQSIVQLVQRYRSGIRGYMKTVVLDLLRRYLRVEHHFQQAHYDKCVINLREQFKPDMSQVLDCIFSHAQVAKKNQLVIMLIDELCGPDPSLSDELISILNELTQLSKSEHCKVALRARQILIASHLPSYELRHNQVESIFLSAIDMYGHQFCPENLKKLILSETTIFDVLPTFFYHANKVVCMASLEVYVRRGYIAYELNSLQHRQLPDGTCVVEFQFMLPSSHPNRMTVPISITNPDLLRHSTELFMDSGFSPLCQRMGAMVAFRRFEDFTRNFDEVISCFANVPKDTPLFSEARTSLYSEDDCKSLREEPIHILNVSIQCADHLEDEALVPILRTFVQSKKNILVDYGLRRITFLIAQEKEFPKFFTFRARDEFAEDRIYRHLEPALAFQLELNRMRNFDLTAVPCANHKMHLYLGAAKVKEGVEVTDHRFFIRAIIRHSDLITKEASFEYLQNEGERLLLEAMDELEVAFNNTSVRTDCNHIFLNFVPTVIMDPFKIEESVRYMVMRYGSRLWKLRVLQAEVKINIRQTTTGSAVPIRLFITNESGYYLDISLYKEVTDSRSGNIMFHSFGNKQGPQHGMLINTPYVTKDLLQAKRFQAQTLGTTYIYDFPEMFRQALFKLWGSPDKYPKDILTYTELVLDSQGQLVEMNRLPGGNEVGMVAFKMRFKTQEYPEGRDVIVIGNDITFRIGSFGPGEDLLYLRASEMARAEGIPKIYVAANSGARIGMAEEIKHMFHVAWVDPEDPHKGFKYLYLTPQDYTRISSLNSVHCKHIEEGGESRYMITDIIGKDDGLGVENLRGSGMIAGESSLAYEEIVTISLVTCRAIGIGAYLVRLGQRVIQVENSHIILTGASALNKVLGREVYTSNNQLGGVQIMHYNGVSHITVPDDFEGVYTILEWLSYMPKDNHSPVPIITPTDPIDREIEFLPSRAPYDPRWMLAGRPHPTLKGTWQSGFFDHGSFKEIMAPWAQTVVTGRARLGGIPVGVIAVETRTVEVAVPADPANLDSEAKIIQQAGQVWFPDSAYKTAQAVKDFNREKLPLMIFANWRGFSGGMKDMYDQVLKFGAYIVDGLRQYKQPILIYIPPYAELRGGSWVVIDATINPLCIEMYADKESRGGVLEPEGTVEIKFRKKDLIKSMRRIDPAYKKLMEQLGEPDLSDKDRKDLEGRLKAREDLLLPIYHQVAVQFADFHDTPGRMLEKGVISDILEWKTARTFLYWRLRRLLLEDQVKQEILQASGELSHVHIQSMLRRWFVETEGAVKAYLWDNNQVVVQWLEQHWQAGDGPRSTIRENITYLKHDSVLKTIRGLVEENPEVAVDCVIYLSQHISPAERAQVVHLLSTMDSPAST", "experiment": "ACC2 assay, spectrophotometric 384 well assay (NADH-linked, coupled lactate dehydrogenase/pyruvate kinase)", "format": "biochemical", "details": "ACC2 assay, hACC2 construct lacking 128 N-terminal amino acids, 25° C., 340 nm; read-out: IC50", "procedure,_shortened": "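ADP output tracked via pyruvate kinase/lactate dehydrogenase NADH oxidation, slope at 340 nm over 15 min, 25° C, with 500 μM ATP and 200 μM each acetyl-CoA and NADH. Enzyme: insect-cell-expressed human ACC2, N-terminal 128 residues deleted; pH 7.5 Tris with citrate, KHCO3. IC50 from four-parameter regression versus vehicle and no-acetyl-CoA controls.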", "units": {"IC50": "µM"}, "values": [
      {"smiles": "CC(=O)N[C@@H](C)c1ccc(C2CCN(c3ncc(C(=O)N(C)Cc4ccncc4)cn3)CC2)cc1", "note": "[Example 18.1, (S)-2-{4-[4-(1-Acetylamino-ethyl)-phenyl]-piperidin-1-yl}-pyrimidine-5-carboxylic acid methyl-pyridin-4-ylmethyl-amide]", "IC50": 9.8},
      {"smiles": "CC(=O)N[C@@H](C)c1ccc(C2CCN(c3ncc(C(=O)Nc4cccc(F)c4)cn3)CC2)cc1", "note": "[Example 18.2]", "IC50": 1.4},
      {"smiles": "CC(=O)N[C@@H](C)c1ccc(C2CCN(c3ncc(C(=O)Nc4ccc(F)cc4)cn3)CC2)cc1", "note": "[Example 18.3]", "IC50": 0.18},
      {"smiles": "CC(=O)N[C@@H](C)c1ccc(C2CCN(c3ncc(C(=O)N(C)c4ccc(C)cc4)cn3)CC2)cc1", "note": "[Example 18.4]", "IC50": 1.8},
      {"smiles": "CC(=O)N[C@@H](C)c1ccc(C2CCN(c3ncc(C(=O)NC4CC4)cn3)CC2)cc1", "note": "[Example 18.5]", "IC50": 1.9},
      {"smiles": "CC(=O)N[C@@H](C)c1ccc(C2CCN(c3ncc(C(=O)Nc4ccccc4F)cn3)CC2)cc1", "note": "[Example 18.6]", "IC50": 0.26},
      {"smiles": "CC(=O)N[C@@H](C)c1ccc(C2CCN(c3ncc(C(=O)Nc4ccccc4C)cn3)CC2)cc1", "note": "[Example 18.7]", "IC50": 3.6},
      {"smiles": "CC(=O)N[C@@H](C)c1ccc(C2CCN(c3ncc(C(=O)Nc4cccc(C)c4)cn3)CC2)cc1", "note": "[Example 18.8]", "IC50": 0.26},
      {"smiles": "CC(=O)N[C@@H](C)c1ccc(C2CCN(c3ncc(C(=O)N4CCc5ccccc54)cn3)CC2)cc1", "note": "[Example 18.9]", "IC50": 1.6},
      {"smiles": "CC(=O)N[C@@H](C)c1ccc(C2CCN(c3ncc(C(=O)N(C)CC4OCCO4)cn3)CC2)cc1", "note": "[Example 18.10]", "IC50": 11.5},
      {"smiles": "CC(=O)N[C@@H](C)c1ccc(C2CCN(c3ncc(C(=O)N4CCCCC4)cn3)CC2)cc1", "note": "[Example 18.11]", "IC50": 0.74},
      {"smiles": "COc1cccc(NC(=O)c2cnc(N3CCC(c4ccc([C@H](C)NC(C)=O)cc4)CC3)nc2)c1", "note": "[Example 18.12]", "IC50": 0.42},
      {"smiles": "CC(=O)N[C@@H](C)c1ccc(C2CCN(c3ncc(C(=O)NCc4ccccn4)cn3)CC2)cc1", "note": "[Example 18.13]", "IC50": 6.1},
      {"smiles": "COc1ccccc1CNC(=O)c1cnc(N2CCC(c3ccc([C@H](C)NC(C)=O)cc3)CC2)nc1", "note": "[Example 18.14]", "IC50": 10.2},
      {"smiles": "CC(=O)N[C@@H](C)c1ccc(C2CCN(c3ncc(C(=O)Nc4ccccn4)cn3)CC2)cc1", "note": "[Example 18.15]", "IC50": 7.2},
      {"smiles": "COc1ccccc1NC(=O)c1cnc(N2CCC(c3ccc([C@H](C)NC(C)=O)cc3)CC2)nc1", "note": "[Example 18.16]", "IC50": 5.1},
      {"smiles": "CC(=O)N[C@@H](C)c1ccc(C2CCN(c3ncc(C(=O)Nc4ccc(C)cc4)cn3)CC2)cc1", "note": "[Example 18.17]", "IC50": 7.9},
      {"smiles": "CC(=O)N[C@@H](C)c1ccc(C2CCN(c3ncc(C(=O)Nc4ccc5c(c4)OCO5)cn3)CC2)cc1", "note": "[Example 18.18]", "IC50": 1.1},
      {"smiles": "COc1ccc(CNC(=O)c2cnc(N3CCC(c4ccc([C@H](C)NC(C)=O)cc4)CC3)nc2)cc1", "note": "[Example 18.19]", "IC50": 20.5},
      {"smiles": "CC(=O)N[C@@H](C)c1ccc(C2CCN(c3ncc(C(=O)N4CC5CCCC5C4)cn3)CC2)cc1", "note": "(stereo partly drawn) [Example 18.20]", "IC50": 0.53},
      {"smiles": "CC(=O)N[C@@H](C)c1ccc(C2CCN(c3ncc(C(=O)NCc4cc[nH]n4)cn3)CC2)cc1", "note": "[Example 18.21]", "IC50": 2.6},
      {"smiles": "CC(=O)N[C@@H](C)c1ccc(C2CCN(c3ncc(C(=O)NCc4ccn(C)n4)cn3)CC2)cc1", "note": "[Example 18.22]", "IC50": 11.4},
      {"smiles": "COC1CN(C(=O)c2cnc(N3CCC(c4ccc([C@H](C)NC(C)=O)cc4)CC3)nc2)C1", "note": "[Example 18.23]", "IC50": 3.1},
      {"smiles": "COC1CCN(C(=O)c2cnc(N3CCC(c4ccc([C@H](C)NC(C)=O)cc4)CC3)nc2)CC1", "note": "[Example 18.24]", "IC50": 5.2},
      {"smiles": "COCCN(C)C(=O)c1cnc(N2CCC(c3ccc([C@H](C)NC(C)=O)cc3)CC2)nc1", "note": "[Example 18.25]", "IC50": 7.1},
      {"smiles": "CC(=O)N[C@@H](C)c1ccc(C2CCN(c3ncc(C(=O)N(C)C4CC4)cn3)CC2)cc1", "note": "[Example 18.26]", "IC50": 2.5},
      {"smiles": "COC[C@H]1CCCN1C(=O)c1cnc(N2CCC(c3ccc([C@H](C)NC(C)=O)cc3)CC2)nc1", "note": "[Example 18.27]", "IC50": 10.4}
    ]}
  ]
}
